Laboratory results: patent US20250195457A1, “PHARMACEUTICAL COMPOSITION FOR TREATMENT OF PARKINSON'S DISEASE” (Eisai R&D Management Co., Ltd., priority 2022, published 2025)

Legend:
[1] = test system: Parkinson's disease mouse model; conditions: pre-onset treatment; cited from earlier work
[2] = test system: levodopa-induced dyskinesia model cynomolgus monkeys; test: Test Example 3: dyskinesia score in levodopa-induced dyskinesia model monkeys; format: in vivo; set-up: key to Dyskinesia score: dyskinesia score 0 = normal home cage activity to 4 = severe stereotypy; conditions: Istradefylline 60 mg/kg (G4)
Procedure: A levodopa/carbidopa mixture containing 80 mg/kg of levodopa and 20 mg/kg of carbidopa and having a solution volume of 5 mL/kg was orally administered to Parkinson's disease model cynomolgus monkeys at the age of 6 to 7 prepared in the same way as in Test Example 1 for 8 consecutive days to provide levodopa-induced dyskinesia model cynomolgus monkeys. The induction of dyskinesia was determined based on the “dyskinesia score” in accordance with the following behavior evaluation items in the following test on activity in home cages, and animals having dyskinesia scores of 1 or more on day 7 of the repeated administration of the levodopa/carbidopa mixture were used.
Home cage activities corresponding to dyskinesia scores • 0: Normal home cage activity (exploring or inactivity, able to drink water, plays with mirror or caging, climbing of the walls). • 1: Some interference with normal activity, however able to climb walls. • 2: Occasional exploration of cage, some stereotypy • 3: Little normal movement, lack of climbing of walls, clear stereotypy • 4: Lack of normal home cage activity, lack of normal exploratory behavior and movement, severe stereotypy
Seven levodopa-induced dyskinesia model cynomolgus monkeys were randomized into 4 groups of approximately equal mean and variance in terms of body weight. On subsequent cycles 2, 3, and 4, the animals were crossed over to receive the other treatment. A wash out period of one week or more was set between cycles.
One of the seven animals was excluded from the evaluation of cycles 3 and 4 because it was unable to get up due to dyskinesia on day 8 in cycle 3 of the repeated administration of the levodopa/carbidopa mixture.
By the end of the study, each animal had received all the four treatments. Each substance was administered 1 hr. after the administration on day 8 of the repeated administration of the levodopa/carbidopa mixture. As a vehicle, an aqueous solution containing 0.43% (w/v) methyl cellulose 400, 10% (v/v) dimethyl sulfoxide (DMSO), and 4.5% (w/v) Cremophor (R) were used.
Before the administration, and 1 hr., 4 hrs., and 24 hrs. after the administration of the test substances, the dyskinesia scores of the animals were evaluated. The behavior evaluation was performed in a blinded manner. The dyskinesia scores of the groups were compared using Steel's test. The p-values of less than 0.05 were considered to be statistically significant.

[3] = test system: Parkinson's disease model cynomolgus monkeys (MPTP); test: Test Example 1: NDSs after administration of Compound (I) alone in MPTP Parkinson's disease model monkeys; format: in vivo; set-up: key to Subgroup 2: Specific motor functions score: specific motor functions subscore, range 0-21; conditions: Istradefylline 60 mg/kg (G5)
Procedure: (§1) The therapeutic effect of Compound (I) on Parkinson's disease was examined using Parkinson's disease model animals which are produced by administering MPTP (1-methyl-4-phenyl-1,2,3,6-tetrahydropyridine).
MPTP was administered to male cynomolgus monkeys at the age of 4 to 5 to make Parkinson's disease model cynomolgus monkeys. MPTP was additionally administered to animals with neurologic deficit scores (Neurological deficit scores: NDSs, Schneider et al., “Development of levodopa-induced dyskinesias in parkinsonian monkeys may depend upon rate of symptom onset and/or duration of symptoms”, Brain Res., 2003, 990:38-44.) of less than 25.
Eight Parkinson's disease model cynomolgus monkeys were randomized into 5 groups of approximately equal mean and variance in terms of Parkinson behavior rating (Tremor score) and body weight. On subsequent cycle 2, cycle 3, cycle 4 and cycle 5, the animals were crossed over to receive the other treatments. A wash out period of one week or more was set between each cycle.
By the end of the study, each animal had received all the five treatments. Istradefylline is an adenosine A2A receptor antagonist approved as a drug for improving a wearing off phenomenon in Parkinson's disease being treated with a levodopa-containing preparation in the United States of America and Japan (Patent Literature 4). As a vehicle, an aqueous solution containing 0.43% (w/v) methyl cellulose 400, 10% (v/v) dimethyl sulfoxide (DMSO), and 4.5% (w/v) Cremophor (R) was used.
Before the administration, and 1 hr., 4 hrs., and 24 hrs. after the administration of the test substances, the NDSs of the monkeys were evaluated. The evaluation items are as follows. The behavior evaluation was performed in a blinded manner. The NDSs of the groups were compared using Steel's test. The p-values of less than 0.05 were considered to be statistically significant.
Subgroup 1: generalized behaviors (0-32) • 1.1a Appetite • 0: Normal • 1: Up to 30% food left • 2: Up to 65% food left • 3: Greater than 65% food left • 1.1b Response to offered food • 0: Responds to offered food • 1: Inconsistent response to offered food • 2: Little to no interest in offered food • 1.2 Overall activity • 0: Normal • 1: Mild hypokinesia; decrease in spontaneous movement • 2: Moderate hypokinesia; sparse spontaneous movement • 3: Severe hypokinesia; no spontaneous movement; tends to remain in one place • 1.3 Appearance • 0: Normal • 1: Mild but noticeable decrease in self-maintenance • 2: Moderate decrease in self-maintenance • 3: Severe lack of self-maintenance • 1.4 Posture • 0: Normal • 1: Minor flexing or stooping • 2: Moderate flexing or stooping; head and upper body almost parallel to floor of cage • 3: Severe flexing or stooping; head lowered to feet • 1.5 Balance • 0: Normal • 1: Mild loss on arising or movement • 2: Moderate loss on arising or movement; occasionally falls or supports self to keep from falling • 3: Severe loss of balance; falls • 1.6 Climbing • 0: Climbing observed with no delays in initiation/execution • 1: Mild deficit in ability to climb and support weight • 2: Moderate deficit in ability to climb and support weight; tends to ‘slide down’ • 3: Absence of any climbing behavior • 1.7 Tremor • 0: Absent • 1: Slight and intermittent • 2: Slight and persistent or moderate and intermittent • 3: Moderate/severe and persistent • 1.8 Freezing during movement • 0: Absent • 1: Occasional freezing for brief periods • 2: Occasional freezing for prolonged periods or frequent freezing for brief periods • 3: Prolonged and frequent freezing • 1.9 Facial expression • 0: Normal • 1: Mild hypomimia • 2: Moderate hypomimia • 3: Severe, masked fixed faces • 1.10 Defense reaction • 0: Normal • 1: Mild, noticeable reduction in reaction or slowed reaction, but can be provoked to react • 2: Moderate reduction in reaction; can produce facial display but not body reaction • 3: Little to no response
Subgroup 2: Specific Motor Functions (0-21)

[4] = test system: Parkinson's disease model cynomolgus monkeys (MPTP); test: Test Example 2: NDSs after combined administration of Compound (I) and levodopa in MPTP Parkinson's disease model monkeys; format: in vivo
Description: as §1
Parkinson's disease model cynomolgus monkeys were provided in the same way as in Test Example 1, and the therapeutic effect of the combined administration of Compound (I) and levodopa was examined.
By the end of the study, each animal had received all the five treatments. As a vehicle, an aqueous solution containing 0.43% (w/v) methyl cellulose 400, 10% (v/v) dimethyl sulfoxide (DMSO), and 4.5% (w/v) Cremophor (R) was used.
Before the administration, and 1 hr., 4 hrs., and 24 hrs. after the administration of the test substances, the NDSs of the monkeys were evaluated. The evaluation items and the evaluation methods are the same as in Test Example 1.

[5] = Levodopa 5 mg/kg (G3), 1 hr. after administration
[6] = Levodopa 5 mg/kg (G3), 4 hrs. after administration
[7] = Levodopa 5 mg/kg (G3), 24 hrs. after administration
[8] = Levodopa 5 mg/kg (G3), Pre (before administration)
[9] = Levodopa 10 mg/kg (G2), 1 hr. after administration
[10] = Levodopa 10 mg/kg (G2), 4 hrs. after administration
[11] = Levodopa 10 mg/kg (G2), 24 hrs. after administration
[12] = Levodopa 10 mg/kg (G2), Pre (before administration)

Cc1ccsc1C(=CCCN1CCC[C@@H](C(=O)O)C1)c1sccc1C [tiagabine]
effect on nigrostriatal axis and motor dysfunction [1]: partially protects nigrostriatal axis to ameliorate motor dysfunction

CCn1c(=O)c2c(nc(/C=C/c3ccc(OC)c(OC)c3)n2C)n(CC)c1=O [Istradefylline, reference compound]
Dyskinesia score ([2]; 1 hr. after administration): 1.8 ± 0.2 | Dyskinesia score ([2]; 4 hrs. after administration): 1.8 ± 0.2 | Dyskinesia score ([2]; 24 hrs. after administration): 1.8 ± 0.2 | Dyskinesia score ([2]; Pre (before administration)): 1.7 ± 0.2 | Subgroup 1: GENERALIZED BEHAVIORS score ([3]; 1 hr. after administration): 16.1 ± 0.9 | Subgroup 2: Specific motor functions score ([3]; 1 hr. after administration): 12.3 ± 0.8 | Total score of NDSs ([3]; 1 hr. after administration): 28.4 ± 1.6 | Tremor score ([3]; 1 hr. after administration): 1.8 ± 0.2 | Subgroup 1: GENERALIZED BEHAVIORS score ([3]; 4 hrs. after administration): 14.5 ± 0.6 | Subgroup 2: Specific motor functions score ([3]; 4 hrs. after administration): 10.9 ± 0.5 | Total score of NDSs ([3]; 4 hrs. after administration): 25.4 ± 1.0 | Tremor score ([3]; 4 hrs. after administration): 1.6 ± 0.2 | Subgroup 1: GENERALIZED BEHAVIORS score ([3]; 24 hrs. after administration): 15.9 ± 0.9 | Subgroup 2: Specific motor functions score ([3]; 24 hrs. after administration): 12.1 ± 0.5 | Total score of NDSs ([3]; 24 hrs. after administration): 28.0 ± 1.2 | Tremor score ([3]; 24 hrs. after administration): 1.6 ± 0.2 | Subgroup 1: GENERALIZED BEHAVIORS score ([3]; Pre (before administration)): 17.4 ± 0.9 | Subgroup 2: Specific motor functions score ([3]; Pre (before administration)): 13.5 ± 0.4 | Total score of NDSs ([3]; Pre (before administration)): 30.9 ± 1.3 | Tremor score ([3]; Pre (before administration)): 2.1 ± 0.1

N[C@@H](Cc1ccc(O)c(O)c1)C(=O)O [Levodopa, levodopa]
Subgroup 1: GENERALIZED BEHAVIORS score [4, 5]: 14.0 ± 0.7 | Subgroup 2: Specific motor functions score [4, 5]: 11.0 ± 0.9 | Total score of NDSs [4, 5]: 25.0 ± 1.6 | Tremor score [4, 5]: 1.5 ± 0.2 | Subgroup 1: GENERALIZED BEHAVIORS score [4, 6]: 15.0 ± 0.9 | Subgroup 2: Specific motor functions score [4, 6]: 11.9 ± 0.8 | Total score of NDSs [4, 6]: 26.9 ± 1.7 | Tremor score [4, 6]: 1.8 ± 0.2 | Subgroup 1: GENERALIZED BEHAVIORS score [4, 7]: 17.0 ± 0.7 | Subgroup 2: Specific motor functions score [4, 7]: 13.6 ± 0.5 | Total score of NDSs [4, 7]: 30.6 ± 1.1 | Tremor score [4, 7]: 2.0 ± 0.0 | Subgroup 1: GENERALIZED BEHAVIORS score [4, 8]: 17.4 ± 0.7 | Subgroup 2: Specific motor functions score [4, 8]: 14.3 ± 0.5 | Total score of NDSs [4, 8]: 31.6 ± 1.1 | Tremor score [4, 8]: 2.0 ± 0.0 | Subgroup 1: GENERALIZED BEHAVIORS score [4, 9]: 13.5 ± 0.9 | Subgroup 2: Specific motor functions score [4, 9]: 10.9 ± 0.5 | Total score of NDSs [4, 9]: 24.4 ± 1.2 | Tremor score [4, 9]: 1.4 ± 0.2 | Subgroup 1: GENERALIZED BEHAVIORS score [4, 10]: 15.0 ± 0.7 | Subgroup 2: Specific motor functions score [4, 10]: 12.3 ± 0.5 | Total score of NDSs [4, 10]: 27.3 ± 1.0 | Tremor score [4, 10]: 1.4 ± 0.2 | Subgroup 1: GENERALIZED BEHAVIORS score [4, 11]: 17.6 ± 0.7 | Subgroup 2: Specific motor functions score [4, 11]: 14.0 ± 0.5 | Total score of NDSs [4, 11]: 31.6 ± 1.0 | Tremor score [4, 11]: 2.0 ± 0.0 | Subgroup 1: GENERALIZED BEHAVIORS score [4, 12]: 17.8 ± 0.6 | Subgroup 2: Specific motor functions score [4, 12]: 13.9 ± 0.4 | Total score of NDSs [4, 12]: 31.6 ± 0.8 | Tremor score [4, 12]: 2.0 ± 0.0
